According to ChEMBL document CHEMBL3045160, “Betuligenol derivative with growth inhibition and antifeedant activity” (2004):

Key:
Format in all cases: functional
[1] = test system: Spilarctia obliqua; assay: Antifeedant activity against fourth-instar larval stage of Spilarctia obliqua reared on artificial diet containing compound assessed as growth inhibition at 5000 ppm after 48 hr; conditions: read-out: GI
[2] = test system: Spilarctia obliqua; assay: Antifeedant activity against fourth-instar larval stage of Spilarctia obliqua reared on artificial diet containing compound assessed as growth inhibition at 4000 ppm after 48 hr; conditions: read-out: GI
[3] = test system: Spilarctia obliqua; assay: Antifeedant activity against fourth-instar larval stage of Spilarctia obliqua reared on artificial diet containing compound assessed as growth inhibition at 3000 ppm after 48 hr; conditions: read-out: GI
[4] = test system: Spilarctia obliqua; assay: Antifeedant activity against fourth-instar larval stage of Spilarctia obliqua reared on artificial diet containing compound assessed as growth inhibition at 2000 ppm after 48 hr; conditions: read-out: GI
[5] = test system: Spilarctia obliqua; assay: Antifeedant activity against fourth-instar larval stage of Spilarctia obliqua reared on artificial diet containing compound assessed as growth inhibition at 1000 ppm after 48 hr; conditions: read-out: GI
[6] = test system: Spilarctia obliqua; assay: Antifeedant activity against fourth-instar larval stage of Spilarctia obliqua reared on artificial diet containing compound assessed as feeding deterrence index at 5000 ppm after 24 hr
[7] = test system: Spilarctia obliqua; assay: Antifeedant activity against fourth-instar larval stage of Spilarctia obliqua reared on artificial diet containing compound assessed as feeding deterrence index at 4000 ppm after 24 hr
[8] = test system: Spilarctia obliqua; assay: Antifeedant activity against fourth-instar larval stage of Spilarctia obliqua reared on artificial diet containing compound assessed as feeding deterrence index at 2000 ppm after 24 hr
[9] = test system: Spilarctia obliqua; assay: Antifeedant activity against fourth-instar larval stage of Spilarctia obliqua reared on artificial diet containing compound assessed as feeding deterrence index at 3000 ppm after 24 hr
[10] = test system: Spilarctia obliqua; assay: Antifeedant activity against fourth-instar larval stage of Spilarctia obliqua reared on artificial diet containing compound assessed as feeding deterrence index at 1000 ppm after 24 hr
[11] = test system: Spilarctia obliqua; assay: Antifeedant activity against fourth-instar larval stage of Spilarctia obliqua reared on artificial diet containing compound assessed as growth inhibition […] after 48 hr; conditions: read-out: GI

COc1ccc(CC[C@@H](C)N)cc1
inhibition of growth at 5000 ppm [1]: 128% | inhibition of growth at 4000 ppm [2]: 100% | inhibition of growth at 3000 ppm [3]: 72% | inhibition of growth at 2000 ppm [4]: 59% | inhibition of growth at 1000 ppm [5]: 48% | FDI [6]: 100% | FDI [7]: 82% | FDI [8]: 40% | FDI [9]: 64% | FDI [10]: 32%

C/C=C(\C)C(=O)O[C@H]1C[C@@H](OC(C)=O)[C@@]2(C(=O)OC)CO[C@H]3[C@@H](O)[C@@](C)([C@]45O[C@@]4(C)[C@@H]4C[C@H]5O[C@@H]5OC=C[C@@]54O)[C@H]4[C@]1(CO[C@]4(O)C(=O)OC)[C@@H]32 [AZADIRACHTIN A]
FDI [10]: 100%

O=C(NC(=O)c1c(F)cccc1F)Nc1ccc(Cl)cc1 [DIFLUBENZURON]
inhibition of growth at 5 ppm [11]: 100%
